Reference: US20230082929A1, “METHODS OF GENERATING AND USING SENESCENT-INDUCED CELLS FOR TREATMENT OF CANCER AND COMPOSITIONS RELATING THERETO” (The Wistar Institute of Anatomy and Biology, priority 2020, published 2023)

Experiments:
SASP factors = test: Secreted cytokine antibody array, IMR90 cells; format: cell-based, human; details: HMGB2 knockdown senescent IMR90 cells
Procedure: For cytokine-array analysis, cells were washed once and cultured in serum-free medium for 48 hours (Nacarelli et al., 2019). Conditioned medium was filtered (0.2 μm) and then subjected to cytokine-array assay using Human Cytokine Array C1 kit (RayBiotech. Cat. No: AAH-CYT-1-2) following the manufacturer's guidelines. After collection of conditional media, the cell number of each sample was counted. The intensities of array dots were visualized on film after incubation with SuperSignal West Pico PLUS Chemiluminescent Substrate (Thermo Fisher Scientific. Cat. No: 34580). The integrated density was measured using Image J and normalized to the cell number from which the conditioned medium was generated.

TOP1cc [1] = biological target: T1, TOP1cc (Mus musculus, UniProt Q04750); test: Slot blot analysis of TOP1cc levels in CCF of senescent ID8-Defb29/Vegf-a cells; format: cell-based; details: HMGB2 knockdown Cisplatin-induced senescent ID8-Defb29 Vegf-a cells
T1 construct: endogenous in cells; host or cells: UPK10 mouse ovarian cancer cells, sorted senescent and non-senescent fractions
T1 sequence (Q04750 1-767): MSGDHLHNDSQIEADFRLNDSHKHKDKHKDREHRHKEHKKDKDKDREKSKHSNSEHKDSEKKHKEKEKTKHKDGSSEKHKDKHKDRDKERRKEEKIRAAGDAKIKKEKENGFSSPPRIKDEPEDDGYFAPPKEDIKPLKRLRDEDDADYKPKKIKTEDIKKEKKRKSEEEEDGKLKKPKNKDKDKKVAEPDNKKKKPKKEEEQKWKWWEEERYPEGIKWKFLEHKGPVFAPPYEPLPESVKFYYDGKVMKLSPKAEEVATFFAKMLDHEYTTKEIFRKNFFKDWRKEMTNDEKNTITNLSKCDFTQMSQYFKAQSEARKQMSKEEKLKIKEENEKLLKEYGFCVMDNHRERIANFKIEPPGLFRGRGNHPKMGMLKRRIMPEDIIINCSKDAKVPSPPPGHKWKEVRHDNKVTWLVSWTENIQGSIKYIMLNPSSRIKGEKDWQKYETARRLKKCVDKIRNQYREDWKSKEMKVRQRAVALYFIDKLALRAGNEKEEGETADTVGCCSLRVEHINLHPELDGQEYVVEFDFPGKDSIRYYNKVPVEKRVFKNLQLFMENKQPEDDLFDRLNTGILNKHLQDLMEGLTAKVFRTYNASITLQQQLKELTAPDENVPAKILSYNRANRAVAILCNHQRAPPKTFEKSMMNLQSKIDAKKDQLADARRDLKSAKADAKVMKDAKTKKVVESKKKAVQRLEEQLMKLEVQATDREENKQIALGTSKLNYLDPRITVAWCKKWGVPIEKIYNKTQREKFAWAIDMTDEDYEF
Procedure: A CCF purification protocol was developed by modifying previous protocols (Shimizu et al., 1996; Ly et al., 2017). Briefly, 500 million senescent cells were collected, resuspended, and incubated in DMEM containing 10 μg/mL cytochalasin B for 30 minutes at 37° C. After wash once with ice-cold PBS, the cell pellet was gently dounce homogenized in ice-cold pre-chilled lysis buffer (10 mM Tris-HCl, 2 mM magnesium acetate, 3 mM CaCl2), 0.32 M sucrose, 0.1 mM EDTA, 1 mM DTT, 0.1% NP-40, 0.15 mM spermine, 0.75 mM spermidine, 10 μg/ml cytochalasin B, pH 8.5, 4° C.) with ten slow strokes of a loose-fitting pestle. Release of nuclei was confirmed by DAPI-staining and microscopy. The homogenate was fixed with 1% formaldehyde for 10 minutes, and mixed well with an equal volume of 1.6M sucrose buffer (10 mM Tris-HCl, 5 mM magnesium acetate, 0.1 mM EDTA, 1 mM DTT, 0.3% BSA, 0.15 mM spermine, 0.75 mM spermidine, pH 8.0, 4° C.). A 10 mL portion of homogenate was layered on the top of sucrose buffer gradient (20 mL and 15 mL containing 1.8M and 1.6M of sucrose, respectively) in a 50 mL tissue culture tube. The tubes were centrifuged at 1200×g for 20 minutes at 4° C. After centrifugation, the upper 3 mL of the gradient was discarded, and the next 15 mL containing CCFs was collected. […] DNA concentration was measured using Nanodrop and 5 μg DNA was used for slot blot analysis.

TOP1cc [2] = biological target: T2, TOP1cc (Homo sapiens, UniProt P11387); test: TOP1cc induction in CPT-treated IMR90 cells (chromatin fragment extraction, slot blot); format: cell-based; design: endogenous in cells; host or cells: IMR90 human fibroblasts (senescent or proliferating, with or without shHMGB2); details: IMR90 cells treated with two doses of CPT (5 μM or 50 μM, 30 minutes)
T2 sequence (P11387 1-765): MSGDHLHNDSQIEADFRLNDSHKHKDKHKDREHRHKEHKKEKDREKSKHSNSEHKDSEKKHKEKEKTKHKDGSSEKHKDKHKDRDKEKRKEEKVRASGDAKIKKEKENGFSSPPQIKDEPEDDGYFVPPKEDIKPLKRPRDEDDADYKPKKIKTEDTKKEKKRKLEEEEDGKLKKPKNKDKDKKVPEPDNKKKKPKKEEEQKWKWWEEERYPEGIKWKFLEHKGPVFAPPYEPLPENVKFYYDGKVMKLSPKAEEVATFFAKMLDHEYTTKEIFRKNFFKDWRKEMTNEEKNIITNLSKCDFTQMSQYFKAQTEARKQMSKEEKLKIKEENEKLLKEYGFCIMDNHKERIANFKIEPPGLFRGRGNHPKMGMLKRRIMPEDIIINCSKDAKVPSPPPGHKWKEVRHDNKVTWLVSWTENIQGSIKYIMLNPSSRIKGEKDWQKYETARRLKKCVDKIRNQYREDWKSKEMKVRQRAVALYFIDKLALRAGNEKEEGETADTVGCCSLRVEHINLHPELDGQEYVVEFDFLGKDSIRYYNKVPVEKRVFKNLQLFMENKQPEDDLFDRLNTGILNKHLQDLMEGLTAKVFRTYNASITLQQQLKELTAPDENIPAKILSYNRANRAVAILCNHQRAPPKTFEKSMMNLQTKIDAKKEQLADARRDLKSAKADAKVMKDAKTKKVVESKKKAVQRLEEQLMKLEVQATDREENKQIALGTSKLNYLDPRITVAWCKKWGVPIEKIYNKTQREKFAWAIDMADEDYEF
Procedure: For chromatin fragments extraction, proliferating IMR90 cells were treated with 5 μM or 50 μM Camptothecin for 30 minutes to induce low or high levels of TOP1cc, respectively. Cells then were incubated with hypotonic buffer (10 mM Tris, pH 7.4, 30 mM NaCl, 3 mM MgCl2, 0.1% NP40), supplemented with protease inhibitor cocktail, on ice for 10 mins (Dou et al., 2017). The cells were then centrifuged at 300×g for 3 mins at 4° C. The supernatant was carefully removed, and the resulting pellets were incubated with benzonase buffer (50 mM Tris pH 7.5, 300 mM NaCl, 0.5% NP40, 2.5 mM MgCl2) with protease inhibitor cocktail, supplemented with 10 U of benzonase (Sigma Cat. No: E1014), on ice, for 30 min. The product was centrifuged again at 300×g for 3 mins at 4° C., and benzonase was inactivated by addition of 15 mM EDTA. The resulting supernatant contains chromatin fragments and soluble nuclear proteins. For the negative controls, buffer without benzonase was used and the resulting supernatant only contains soluble nuclear proteins without chromatin fragments. The product was then diluted 5 times with PBS. Slot blot were performed to confirm the TOP1cc level.
Human Topoisomerase 1 ICE Assay Kit (TopoGEN. Cat. No:TG1020-1) was used to isolate protein-DNA samples which contain TOP1-DNA covalent complex (TOP Ice) for slot blot analysis. […] Quantification was performed using NIH Image J software.

What does the source list for `CC[C@@]1(O)C(=O)OCc2c1cc1n(c2=O)Cc2cc3ccccc3nc2-1` [CPT, Camptothecin]?
secretion of SASP factors (antibody array) (SASP factors): restoration of the secretion of SASP factors; TOP1cc levels in CCF (TOP1cc [1]): Rescue of the decrease in TOP1cc levels; TOP1cc induction (TOP1cc [2]): induced TOP1cc in a dose-dependent manner
